{
  "source": "patent US10358436B2",
  "about": "“Kinase inhibitors and method of treating cancer” (University Health Network, priority 2010, dated 2019)",
  "key": {"Abl": {"molecular_target": "Abl (Homo sapiens (Human), UniProt P00519)", "type": "biochemical", "conditions": "read-out: % Inhibition @ 0.1 μM, Abl"}, "Abl (m)": {"molecular_target": "Abl (m) (Mus musculus (Mouse), UniProt P00520)", "type": "biochemical", "conditions": "read-out: % Inhibition @ 0.1 μM, Abl (m)"}, "Abl (H396P)": {"molecular_target": "Abl (H396P) (Homo sapiens (Human), UniProt P00519, H396P)", "type": "biochemical", "conditions": "read-out: % Inhibition @ 0.1 μM, Abl (H396P)"}, "Abl (M351T)": {"molecular_target": "Abl (M351T) (Homo sapiens (Human), UniProt P00519, M351T)", "type": "biochemical", "conditions": "read-out: % Inhibition @ 0.1 μM, Abl (M351T)"}, "Abl (Q252H)": {"molecular_target": "Abl (Q252H) (Homo sapiens (Human), UniProt P00519, Q252H)", "type": "biochemical", "conditions": "read-out: % Inhibition @ 0.1 μM, Abl (Q252H)"}, "Abl (T315I)": {"molecular_target": "Abl (T315I) (Homo sapiens (Human), UniProt P00519, T315I)", "type": "biochemical", "conditions": "read-out: % Inhibition @ 0.1 μM, Abl (T315I)"}, "Abl (Y253F)": {"molecular_target": "Abl (Y253F) (Homo sapiens (Human), UniProt P00519, Y253F)", "type": "biochemical", "conditions": "read-out: % Inhibition @ 0.1 μM, Abl (Y253F)"}, "ALK": {"molecular_target": "ALK (Homo sapiens (Human), UniProt Q9UM73)", "type": "biochemical", "conditions": "read-out: % Inhibition @ 0.1 μM, ALK"}, "Arg": {"molecular_target": "Arg (Homo sapiens (Human), UniProt P42684)", "sequence (P42684 whole entry)": "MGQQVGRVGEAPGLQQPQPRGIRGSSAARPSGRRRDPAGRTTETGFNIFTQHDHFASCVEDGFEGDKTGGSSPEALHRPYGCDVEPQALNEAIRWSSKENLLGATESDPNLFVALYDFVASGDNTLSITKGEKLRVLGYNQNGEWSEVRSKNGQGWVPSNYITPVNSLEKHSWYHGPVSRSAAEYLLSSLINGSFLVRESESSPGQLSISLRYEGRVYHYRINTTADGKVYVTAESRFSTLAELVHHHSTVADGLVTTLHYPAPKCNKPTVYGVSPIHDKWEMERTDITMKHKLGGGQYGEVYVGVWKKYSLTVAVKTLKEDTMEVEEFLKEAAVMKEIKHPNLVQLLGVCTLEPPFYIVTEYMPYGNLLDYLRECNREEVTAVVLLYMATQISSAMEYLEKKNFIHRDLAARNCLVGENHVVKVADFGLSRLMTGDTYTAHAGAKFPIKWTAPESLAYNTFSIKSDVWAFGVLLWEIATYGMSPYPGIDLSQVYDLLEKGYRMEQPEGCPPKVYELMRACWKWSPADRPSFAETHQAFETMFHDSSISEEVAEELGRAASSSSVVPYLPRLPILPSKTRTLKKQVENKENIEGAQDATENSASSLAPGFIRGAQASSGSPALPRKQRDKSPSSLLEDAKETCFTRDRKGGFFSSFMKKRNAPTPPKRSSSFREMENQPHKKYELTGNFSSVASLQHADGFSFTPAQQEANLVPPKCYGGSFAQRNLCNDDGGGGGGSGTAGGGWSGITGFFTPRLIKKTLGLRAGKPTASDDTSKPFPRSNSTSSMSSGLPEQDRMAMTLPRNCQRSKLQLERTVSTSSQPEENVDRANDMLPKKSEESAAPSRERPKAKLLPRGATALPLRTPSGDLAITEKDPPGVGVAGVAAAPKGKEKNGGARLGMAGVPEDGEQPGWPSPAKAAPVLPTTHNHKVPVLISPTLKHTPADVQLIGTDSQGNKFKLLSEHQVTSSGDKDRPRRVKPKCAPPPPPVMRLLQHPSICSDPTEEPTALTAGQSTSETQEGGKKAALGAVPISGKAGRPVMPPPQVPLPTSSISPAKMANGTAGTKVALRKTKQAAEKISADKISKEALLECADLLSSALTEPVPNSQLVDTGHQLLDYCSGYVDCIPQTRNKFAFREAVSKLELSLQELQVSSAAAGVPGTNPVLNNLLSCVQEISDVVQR", "type": "biochemical", "conditions": "read-out: % Inhibition @ 0.1 μM, Arg"}, "Arg (m)": {"molecular_target": "Arg (m) (Mus musculus (Mouse), UniProt Q4JIM5)", "type": "biochemical", "conditions": "read-out: % Inhibition @ 0.1 μM, Arg (m)"}, "ARK5": {"molecular_target": "ARK5 (Homo sapiens (Human), UniProt O60285)", "type": "biochemical", "conditions": "read-out: % Inhibition @ 0.1 μM, ARK5"}, "Aurora A": {"molecular_target": "Aurora A (Homo sapiens (Human), UniProt O14965)", "type": "biochemical", "conditions": "read-out: % Inhibition @ 0.1 μM, Aurora-A"}, "Bmx": {"molecular_target": "Bmx (Homo sapiens (Human), UniProt P51813)", "sequence (P51813 whole entry)": "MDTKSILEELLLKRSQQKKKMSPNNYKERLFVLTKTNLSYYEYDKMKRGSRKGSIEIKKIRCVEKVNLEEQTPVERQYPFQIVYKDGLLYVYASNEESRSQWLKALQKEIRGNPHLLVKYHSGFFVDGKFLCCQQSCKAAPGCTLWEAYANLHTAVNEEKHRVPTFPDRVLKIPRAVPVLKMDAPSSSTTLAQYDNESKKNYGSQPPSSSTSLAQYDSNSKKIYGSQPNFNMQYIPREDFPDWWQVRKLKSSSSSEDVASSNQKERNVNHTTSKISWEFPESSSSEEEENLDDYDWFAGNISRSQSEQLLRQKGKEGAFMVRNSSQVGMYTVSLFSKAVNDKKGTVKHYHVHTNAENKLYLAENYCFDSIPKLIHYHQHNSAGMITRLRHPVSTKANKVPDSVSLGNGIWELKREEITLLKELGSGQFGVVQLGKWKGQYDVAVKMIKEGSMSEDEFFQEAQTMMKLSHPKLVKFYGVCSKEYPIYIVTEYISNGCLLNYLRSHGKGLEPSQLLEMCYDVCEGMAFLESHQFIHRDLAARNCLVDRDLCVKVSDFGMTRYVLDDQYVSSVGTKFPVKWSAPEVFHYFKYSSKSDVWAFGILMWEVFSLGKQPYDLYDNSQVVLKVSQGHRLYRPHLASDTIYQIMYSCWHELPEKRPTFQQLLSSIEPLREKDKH", "type": "biochemical", "conditions": "read-out: % Inhibition @ 0.1 μM, Bmx"}, "EphA1": {"molecular_target": "EphA1 (Homo sapiens (Human), UniProt P21709)", "type": "biochemical", "conditions": "read-out: % Inhibition @ 0.1 μM, EphA1"}, "EphB1": {"molecular_target": "EphB1 (Homo sapiens (Human), UniProt P54762)", "sequence (P54762 18-984)": "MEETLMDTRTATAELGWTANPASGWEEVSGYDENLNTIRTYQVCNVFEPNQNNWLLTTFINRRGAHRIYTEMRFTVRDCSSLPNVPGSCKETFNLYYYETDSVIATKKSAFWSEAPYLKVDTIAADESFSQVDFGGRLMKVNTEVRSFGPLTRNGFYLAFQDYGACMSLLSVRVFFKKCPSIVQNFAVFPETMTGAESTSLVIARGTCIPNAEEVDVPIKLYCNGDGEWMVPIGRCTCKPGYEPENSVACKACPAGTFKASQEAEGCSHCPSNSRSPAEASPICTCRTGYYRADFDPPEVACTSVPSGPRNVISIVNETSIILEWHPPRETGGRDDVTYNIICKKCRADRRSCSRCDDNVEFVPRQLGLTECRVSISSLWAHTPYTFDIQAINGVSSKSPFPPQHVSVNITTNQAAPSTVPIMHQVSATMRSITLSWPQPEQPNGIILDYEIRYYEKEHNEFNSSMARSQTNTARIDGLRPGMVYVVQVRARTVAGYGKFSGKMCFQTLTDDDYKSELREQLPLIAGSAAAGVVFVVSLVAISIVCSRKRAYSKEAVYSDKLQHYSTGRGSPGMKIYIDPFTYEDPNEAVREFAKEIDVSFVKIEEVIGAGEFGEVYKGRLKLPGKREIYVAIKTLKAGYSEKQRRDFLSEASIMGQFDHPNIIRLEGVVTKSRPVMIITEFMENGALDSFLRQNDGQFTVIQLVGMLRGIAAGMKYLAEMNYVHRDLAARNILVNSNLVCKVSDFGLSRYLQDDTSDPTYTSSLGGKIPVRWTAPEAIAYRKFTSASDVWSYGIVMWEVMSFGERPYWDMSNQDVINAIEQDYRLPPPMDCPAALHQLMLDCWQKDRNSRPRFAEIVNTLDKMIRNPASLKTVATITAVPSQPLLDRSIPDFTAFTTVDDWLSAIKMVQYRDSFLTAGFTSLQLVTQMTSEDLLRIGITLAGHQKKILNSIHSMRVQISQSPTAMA", "type": "biochemical", "conditions": "read-out: % Inhibition @ 0.1 μM, EphB1"}, "FGFR1": {"molecular_target": "FGFR1 (Homo sapiens (Human), UniProt P11362)", "type": "biochemical", "conditions": "read-out: % Inhibition @ 0.1 μM, FGFR1"}, "FGFR1 (V561M)": {"molecular_target": "FGFR1 (V561M) (Homo sapiens (Human), UniProt P11362, V561M)", "type": "biochemical", "conditions": "read-out: % Inhibition @ 0.1 μM, FGFR1 (V561M)"}, "FGFR2": {"molecular_target": "FGFR2 (Homo sapiens (Human), UniProt P21802)", "type": "biochemical", "conditions": "read-out: % Inhibition @ 0.1 μM, FGFR2"}, "FGFR2 (N549H)": {"molecular_target": "FGFR2 (N549H) (Homo sapiens (Human), UniProt P21802, N549H)", "type": "biochemical", "conditions": "read-out: % Inhibition @ 0.1 μM, FGFR2 (N549H)"}, "FGFR3": {"molecular_target": "FGFR3 (Homo sapiens (Human), UniProt P22607)", "type": "biochemical", "conditions": "read-out: % Inhibition @ 0.1 μM, FGFR3"}, "GCK": {"molecular_target": "GCK (Homo sapiens (Human), UniProt Q12851)", "type": "biochemical", "conditions": "read-out: % Inhibition @ 0.1 μM, GCK"}, "IRAK1": {"molecular_target": "IRAK1 (Homo sapiens (Human), UniProt P51617)", "type": "biochemical", "conditions": "read-out: % Inhibition @ 0.1 μM, IRAK1"}, "Itk": {"molecular_target": "Itk (Homo sapiens (Human), UniProt Q08881)", "sequence (Q08881 whole entry)": "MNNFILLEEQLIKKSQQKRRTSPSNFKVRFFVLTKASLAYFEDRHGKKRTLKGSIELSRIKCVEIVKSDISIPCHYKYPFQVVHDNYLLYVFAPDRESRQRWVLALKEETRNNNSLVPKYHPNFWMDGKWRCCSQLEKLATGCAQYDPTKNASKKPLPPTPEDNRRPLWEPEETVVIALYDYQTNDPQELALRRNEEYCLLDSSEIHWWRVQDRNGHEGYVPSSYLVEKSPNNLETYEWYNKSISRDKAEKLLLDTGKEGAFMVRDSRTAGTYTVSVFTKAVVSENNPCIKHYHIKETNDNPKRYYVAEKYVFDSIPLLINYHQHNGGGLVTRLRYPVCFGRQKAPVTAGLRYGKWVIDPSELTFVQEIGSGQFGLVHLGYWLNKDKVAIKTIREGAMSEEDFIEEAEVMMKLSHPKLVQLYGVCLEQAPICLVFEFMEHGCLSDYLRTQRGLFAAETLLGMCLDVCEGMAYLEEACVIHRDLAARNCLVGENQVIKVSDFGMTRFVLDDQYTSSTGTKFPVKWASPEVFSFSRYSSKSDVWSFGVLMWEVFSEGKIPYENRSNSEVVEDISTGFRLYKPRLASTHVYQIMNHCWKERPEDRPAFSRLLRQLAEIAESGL", "type": "biochemical", "conditions": "read-out: % Inhibition @ 0.1 μM, Itk"}, "Lck": {"molecular_target": "Lck (Homo sapiens (Human), UniProt P06239)", "sequence (P06239 whole entry)": "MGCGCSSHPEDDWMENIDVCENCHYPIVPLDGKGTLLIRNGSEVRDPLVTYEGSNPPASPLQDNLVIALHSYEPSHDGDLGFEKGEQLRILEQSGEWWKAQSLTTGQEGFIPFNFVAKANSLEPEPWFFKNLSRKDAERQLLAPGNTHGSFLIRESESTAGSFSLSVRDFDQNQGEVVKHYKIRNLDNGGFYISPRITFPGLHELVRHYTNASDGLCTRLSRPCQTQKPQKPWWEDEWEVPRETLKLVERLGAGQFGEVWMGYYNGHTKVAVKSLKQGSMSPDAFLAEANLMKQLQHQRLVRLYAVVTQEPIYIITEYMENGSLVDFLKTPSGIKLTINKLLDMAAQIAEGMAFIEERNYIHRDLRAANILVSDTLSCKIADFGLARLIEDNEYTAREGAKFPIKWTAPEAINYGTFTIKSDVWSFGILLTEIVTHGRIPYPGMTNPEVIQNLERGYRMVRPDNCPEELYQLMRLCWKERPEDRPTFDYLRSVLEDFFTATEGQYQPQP", "type": "biochemical", "conditions": "read-out: % Inhibition @ 0.1 μM, Lck"}, "Lck activated": {"molecular_target": "Lck activated (Homo sapiens (Human), UniProt P06239)", "sequence (P06239 whole entry)": "as above", "type": "biochemical", "conditions": "read-out: % Inhibition @ 0.1 μM, Lck activated"}, "MuSK": {"molecular_target": "MuSK (Homo sapiens (Human), UniProt O15146)", "type": "biochemical", "conditions": "read-out: % Inhibition @ 0.1 μM, MuSK"}, "Ret (V804L)": {"molecular_target": "Ret (V804L) (Homo sapiens (Human), UniProt P07949, V804L)", "sequence (P07949 29-1114 V804L)": "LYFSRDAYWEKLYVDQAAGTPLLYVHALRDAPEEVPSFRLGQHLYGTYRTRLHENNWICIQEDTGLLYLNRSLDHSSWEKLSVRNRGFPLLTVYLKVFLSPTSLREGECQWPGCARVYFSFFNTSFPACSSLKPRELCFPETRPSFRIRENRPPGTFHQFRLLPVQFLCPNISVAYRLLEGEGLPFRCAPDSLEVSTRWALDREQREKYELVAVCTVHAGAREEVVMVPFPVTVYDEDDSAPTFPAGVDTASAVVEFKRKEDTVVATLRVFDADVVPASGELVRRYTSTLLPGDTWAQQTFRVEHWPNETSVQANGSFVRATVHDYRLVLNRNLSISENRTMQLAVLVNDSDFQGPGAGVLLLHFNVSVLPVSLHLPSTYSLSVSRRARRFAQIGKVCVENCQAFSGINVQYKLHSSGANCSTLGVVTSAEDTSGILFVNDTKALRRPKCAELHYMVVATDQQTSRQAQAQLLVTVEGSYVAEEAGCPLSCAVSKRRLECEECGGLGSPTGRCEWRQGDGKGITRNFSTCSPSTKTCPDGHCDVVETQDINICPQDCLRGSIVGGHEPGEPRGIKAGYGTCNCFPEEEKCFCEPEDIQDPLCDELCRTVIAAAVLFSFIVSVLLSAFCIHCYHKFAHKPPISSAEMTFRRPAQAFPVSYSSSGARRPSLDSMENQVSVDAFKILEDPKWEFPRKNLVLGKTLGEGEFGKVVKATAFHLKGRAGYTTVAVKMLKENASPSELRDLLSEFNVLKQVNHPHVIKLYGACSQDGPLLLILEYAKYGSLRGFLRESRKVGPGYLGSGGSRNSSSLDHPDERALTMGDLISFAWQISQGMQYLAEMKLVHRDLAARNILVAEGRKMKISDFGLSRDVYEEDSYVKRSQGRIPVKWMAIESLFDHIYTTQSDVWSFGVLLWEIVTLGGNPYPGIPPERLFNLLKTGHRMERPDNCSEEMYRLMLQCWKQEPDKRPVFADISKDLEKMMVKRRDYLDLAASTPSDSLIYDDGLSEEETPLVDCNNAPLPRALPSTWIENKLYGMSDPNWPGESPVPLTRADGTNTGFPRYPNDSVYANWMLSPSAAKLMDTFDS", "type": "biochemical", "conditions": "read-out: % Inhibition @ 0.1 μM, Ret (V804L)"}, "Ron": {"molecular_target": "Ron (Homo sapiens (Human), UniProt Q04912)", "type": "biochemical", "conditions": "read-out: % Inhibition @ 0.1 μM, Ron"}, "Ros": {"molecular_target": "Ros (Homo sapiens (Human), UniProt P08922)", "type": "biochemical", "conditions": "read-out: % Inhibition @ 0.1 μM, Ros"}, "Tie2": {"molecular_target": "Tie2 (Homo sapiens (Human), UniProt Q02763)", "type": "biochemical", "conditions": "read-out: % Inhibition @ 0.1 μM, Tie2"}, "Tie2 (R849W)": {"molecular_target": "Tie2 (R849W) (Homo sapiens (Human), UniProt Q02763, R849W)", "type": "biochemical", "conditions": "read-out: % Inhibition @ 0.1 μM, Tie2 (R849W)"}, "Tie2 (Y897S)": {"molecular_target": "Tie2 (Y897S) (Homo sapiens (Human), UniProt Q02763, Y897S)", "type": "biochemical", "conditions": "read-out: % Inhibition @ 0.1 μM, Tie2 (Y897S)"}, "TRKA": {"molecular_target": "TRKA (Homo sapiens (Human), UniProt P04629)", "type": "biochemical", "conditions": "read-out: % Inhibition @ 0.1 μM, TrkA"}, "TrkB": {"molecular_target": "TrkB (Homo sapiens (Human), UniProt Q16620)", "assay": "biochemical", "conditions": "read-out: % Inhibition @ 0.1 μM, TrkB"}, "Aurora B": {"molecular_target": "Aurora B (Homo sapiens (Human), UniProt Q96GD4)", "conditions": "read-out: % Inhibition @ 0.1 μM, Aurora-B"}, "FLT3": {"molecular_target": "FLT3 (Homo sapiens (Human), UniProt P36888)", "conditions": "read-out: % Inhibition @ 0.1 μM, Flt3"}},
  "data": [
    {"molecule": "COc1ccc2c(c1)[C@]1(C[C@H]1c1ccc3c(/C=C/c4ccc(N5CCN(C)CC5)nc4)n[nH]c3c1)C(=O)N2", "note": "[Example A33, (1R,2S)-5′-methoxy-2-(3-((E)-2-(6-(4-methylpiperazin-1-yl)pyridin-3-yl)vinyl)-1H-indazol-6-yl)spiro[cyclopropane-1,3′-indolin]-2′-one 2,2,2-trifluoroacetate]", "values": [
      {"measurement": "inhibition at 0.1 µM", "setting": "Abl", "result": 72, "unit": "%"},
      {"measurement": "inhibition at 0.1 µM", "setting": "Abl (m)", "result": 96, "unit": "%"},
      {"measurement": "inhibition at 0.1 µM", "setting": "Abl (H396P)", "result": 93, "unit": "%"},
      {"measurement": "inhibition at 0.1 µM", "setting": "Abl (M351T)", "result": 95, "unit": "%"},
      {"measurement": "inhibition at 0.1 µM", "setting": "Abl (Q252H)", "result": 83, "unit": "%"},
      {"measurement": "inhibition at 0.1 µM", "setting": "Abl (T315I)", "result": 94, "unit": "%"},
      {"measurement": "inhibition at 0.1 µM", "setting": "Abl (Y253F)", "result": 78, "unit": "%"},
      {"measurement": "inhibition at 0.1 µM", "setting": "ALK", "result": 32, "unit": "%"},
      {"measurement": "inhibition at 0.1 µM", "setting": "Arg", "result": 94, "unit": "%"},
      {"measurement": "inhibition at 0.1 µM", "setting": "Arg (m)", "result": 96, "unit": "%"},
      {"measurement": "inhibition at 0.1 µM", "setting": "ARK5", "result": 67, "unit": "%"},
      {"measurement": "inhibition at 0.1 µM", "setting": "Aurora A", "result": 96, "unit": "%"},
      {"measurement": "inhibition at 0.1 µM", "setting": "Bmx", "result": 68, "unit": "%"},
      {"measurement": "inhibition at 0.1 µM", "setting": "EphA1", "result": 22, "unit": "%"},
      {"measurement": "inhibition at 0.1 µM", "setting": "EphB1", "result": 34, "unit": "%"},
      {"measurement": "inhibition at 0.1 µM", "setting": "FGFR1", "result": 87, "unit": "%"},
      {"measurement": "inhibition at 0.1 µM", "setting": "FGFR1 (V561M)", "result": 91, "unit": "%"},
      {"measurement": "inhibition at 0.1 µM", "setting": "FGFR2", "result": 82, "unit": "%"},
      {"measurement": "inhibition at 0.1 µM", "setting": "FGFR2 (N549H)", "result": 75, "unit": "%"},
      {"measurement": "inhibition at 0.1 µM", "setting": "FGFR3", "result": 91, "unit": "%"},
      {"measurement": "inhibition at 0.1 µM", "setting": "GCK", "result": 51, "unit": "%"},
      {"measurement": "inhibition at 0.1 µM", "setting": "IRAK1", "result": 24, "unit": "%"},
      {"measurement": "inhibition at 0.1 µM", "setting": "Itk", "result": 34, "unit": "%"},
      {"measurement": "inhibition at 0.1 µM", "setting": "Lck", "result": 48, "unit": "%"},
      {"measurement": "inhibition at 0.1 µM", "setting": "Lck activated", "result": 41, "unit": "%"},
      {"measurement": "inhibition at 0.1 µM", "setting": "MuSK", "result": 18, "unit": "%"},
      {"measurement": "inhibition at 0.1 µM", "setting": "Ret (V804L)", "result": 43, "unit": "%"},
      {"measurement": "inhibition at 0.1 µM", "setting": "Ron", "result": 42, "unit": "%"},
      {"measurement": "inhibition at 0.1 µM", "setting": "Ros", "result": 23, "unit": "%"},
      {"measurement": "inhibition at 0.1 µM", "setting": "Tie2", "result": 83, "unit": "%"},
      {"measurement": "inhibition at 0.1 µM", "setting": "Tie2 (R849W)", "result": 40, "unit": "%"},
      {"measurement": "inhibition at 0.1 µM", "setting": "Tie2 (Y897S)", "result": 49, "unit": "%"},
      {"measurement": "inhibition at 0.1 µM", "setting": "TRKA", "result": 97, "unit": "%"},
      {"measurement": "inhibition at 0.1 µM", "setting": "TrkB", "result": 98, "unit": "%"},
      {"measurement": "inhibition at 0.1 µM", "setting": "Aurora B", "result": 100, "unit": "%"},
      {"measurement": "inhibition at 0.1 µM", "setting": "FLT3", "result": 28, "unit": "%"}
    ]}
  ]
}
